A word on the IC50: it is the concentration needed to halve the response being measured.

Structures are written as SMILES.

The assay concerns GBM8 cells (human glioblastoma neurosphere cell culture). Briefly: GBM8 viability assay (Cell Titer Glo luminescence, 3 days). The class given is cell-based. The conditions noted are these: 72 h, 3 days incubation. In a few lines:
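Patient-derived neurosphere cells (4000/well) in NeuroCult medium with rh EGF, rh bFGF and heparin, ultra-low attachment, dosed after overnight settling; 3 days at 37 °C. CellTiter-Glo luminescence versus DMSO controls gave % growth inhibition; IC50 from 4-parameter fit of serial dilutions.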
For `Cc1cc(NCC(O)CO)nc(NC(=O)Nc2cccc(C(F)(F)F)c2)n1` (centres unmarked) [Compound 187], the IC50 is less than 1 µM.
As to `Cc1cc(NCCCN)nc(NC(=O)Nc2ccc3c(c2)OCCO3)n1` [Compound 292], the IC50 is less than 1 µM.
Compound `CC(=O)NCCNc1cc(C)nc(NC(=O)Nc2cccc(C(F)(F)F)c2)n1` [Compound 277] had an IC50 of 1 to 10 µM.
As for `Cc1cc(NCCc2ccccn2)nc(NC(=O)Nc2ccc(Cl)c(C(F)(F)F)c2)n1` [Compound 57], the 50% inhibitory concentration (IC50) lay in the range of 1 to 10 µM.
On to `CC(=O)NCCNc1cc(C)nc(NC(=O)Nc2ccc(C(C)(C)C)cc2)n1` [Compound 309, N-(2-{2-[3-(4-tert-butyl-phenyl)-ureido]-6-methyl-pyrimidin-4-ylamino}-ethyl)-ace mid], for which the IC50 was less than 1 µM.
The compound `Cc1cc(NCCCCN(C)C)nc(NC(=O)Nc2ccc(Cl)c(C(F)(F)F)c2)n1` [Compound 56] showed an IC50 of 1 to 10 µM.
Compound `CCCNc1cc(C)nc(NC(=O)Nc2ccc(C)c(C)c2)n1` [Compound 261] had an IC50 of less than 1 µM.
`Cc1cc(NCCCN)nc(NC(=O)Nc2cccc(C(F)(F)F)c2)n1` [Compound 192] registered an IC50 of less than 1 µM.
Compound `Cc1cc(NCC(C)O)nc(NC(=O)Nc2ccc(Cl)c(Cl)c2)n1` (centres unmarked) [Compound 10, 1-{2-[3-(3,4-Dichlorophenyl)ureido]-6-methyl-4-pyrimidinylamino}-2-propanol] yielded an IC50 of less than 1 µM.
Turning to `Cc1cc(NCCCc2ccccn2)nc(NC(=O)Nc2ccc(Cl)c(Cl)c2)n1` [Compound 21], the concentration for half-maximal inhibition (IC50) is 1 to 10 µM.
`Cc1cc(NCCCCN(C)C)nc(NC(=O)Nc2ccc(C)c(C)c2)n1` [Compound 256] yielded an IC50 of less than 1 µM.
Compound `CNCCCNc1cc(C)nc(NC(=O)Nc2ccc(Cl)c(C(F)(F)F)c2)n1` [Compound 64] gave an IC50 of less than 1 µM.
On to `Cc1cc(NCCO)nc(NC(=O)Nc2ccc(F)c(Cl)c2)n1` [Compound 161], for which the half-inhibitory concentration (IC50) was less than 1 µM.
`Cc1cc(NCCCCN(C)C)nc(NC(=O)Nc2cccc(C(F)(F)F)c2)n1` [Compound 191] came in with an IC50 of less than 1 µM.
In turn, `Cc1cccc(NC(=O)Nc2nc(C)cc(NCCOCCO)n2)c1` [Compound 217] came in with an IC50 of less than 1 µM.
For the compound `Cc1cc(NCCN)nc(NC(=O)Nc2ccc(OC(F)(F)F)cc2)n1` [Compound 87, 1-(4-((2-aminoethyl)amino)-6-methylpyrimidin-2-yl)-3-(4-(trifluoromethoxy)phenyl)urea], the concentration for half-maximal inhibition (IC50) is less than 1 µM.
Compound `CCNc1cc(C)nc(NC(=O)Nc2ccc3c(c2)OCO3)n1` [Compound 285] showed an IC50 of less than 1 µM.
Regarding `Cc1cc(NCCO)nc(NC(=O)Nc2ccc(C(F)(F)F)cc2)n1` [Compound 201], the half-maximal inhibitory concentration (IC50) was less than 1 µM.
Compound `CNCCCNc1cc(C)nc(NC(=O)Nc2ccc(OC(F)(F)F)cc2)n1` [Compound 99, 1-[4-Methyl-6-(3-methylamino-propylamino)-pyrimidin-2-yl]-3-(4-trifluoromethoxy-phenyl)-urea] gave a half-maximal inhibitory concentration (IC50) of less than 1 µM.
For the compound `COc1cccc(NC(=O)Nc2nc(C)cc(NCCCN)n2)c1` [Compound 143], the half-maximal inhibitory concentration (IC50) lay in the range of 1 to 10 µM.
As to `Cc1cc(NCCCO)nc(NC(=O)Nc2ccc(F)c(C(F)(F)F)c2)n1` [Compound 102, 1-(4-fluoro-3-(trifluoromethyl)phenyl)-3-(4-((3-hydroxypropyl)amino)-6-methylpyrimidin-2-yl)urea], the IC50 was less than 1 µM.
`CNCCCNc1cc(C)nc(NC(=O)Nc2cccc(C(F)(F)F)c2)n1` [Compound 194, 1-(4-methyl-6-((3-(methylamino)propyl)amino)pyrimidin-2-yl)-3-(3-(trifluoromethyl)phenyl)urea] had a concentration for half-maximal inhibition (IC50) of less than 1 µM.
The result for `Cc1cc(NC2CCNC2)nc(NC(=O)Nc2ccc(Cl)c(C(F)(F)F)c2)n1` (centres unmarked) [Compound 67] reads less than 1 µM; that for `Cc1cc(NCC2CCCN(C)C2)nc(NC(=O)Nc2ccc(C(F)(F)F)cc2)n1` (centres unmarked) [Compound 206], 1 to 10 µM.
The result for `Cc1cc(NCC(O)CO)nc(NC(=O)Nc2ccc(F)c(C(F)(F)F)c2)n1` (centres unmarked) [Compound 108] reads less than 1 µM.
The result for `COc1ccc(NC(=O)Nc2nc(C)cc(NCCCCN)n2)cc1` [Compound 137] reads less than 1 µM.

Values taken from patent US11691951B2 (Curtana Pharmaceuticals, Inc., priority 2015, dated 2023).
